# Test results as given in ChEMBL document CHEMBL5376026, “Design, synthesis, and antiproliferative evaluation of novel dehydroabietic acid-1,2,3-triazole-oxazolidinone hybrids” (RSC Med Chem, 2024).
# Where a name gives a salt, the structure may show the parent alone.
# Tests used:
# [1] = test system: MGC-803; assay: Anticancer activity against human MGC-803 cells assessed as inhibition of cell growth incubated for 48 hrs by MTT assay; type: functional, cell-based; settings: MGC-803, 48 h
# [2] = test system: HepG2; assay: Anticancer activity against human HepG2 cells assessed as inhibition of cell growth incubated for 48 hrs by MTT assay; type: functional, cell-based; settings: HepG2, 48 h
# [3] = test system: HeLa; assay: Anticancer activity against human HeLa cells assessed as inhibition of cell growth incubated for 48 hrs by MTT assay; type: functional, cell-based
# [4] = Cytotoxicity against human LO2 cells assessed as reduction in cell viability incubated for 48 hrs by MTT assay; type: toxicity, cell-based, L02
# [5] = test system: T-24; assay: Anticancer activity against human T-24 cells assessed as inhibition of cell growth incubated for 48 hrs by MTT assay; type: functional, cell-based; settings: T-24, 48 h
Structure (SMILES),IC50 [1],IC50 [2],IC50 [3],IC50 at 48 h [4],IC50 [5]
CC(C)c1ccc2c(c1)CC[C@H]1[C@](C)(C(=O)OCc3cn(CC4CN(c5ccc(F)c(F)c5)C(=O)O4)nn3)CCC[C@]21C (stereo not given in full),17.4 µM,32 µM,9.35 µM,23.4 µM,26.5 µM
CC(C)c1ccc2c(c1)CC[C@H]1[C@](C)(C(=O)OCc3cn(CC4CN(c5ccccc5F)C(=O)O4)nn3)CCC[C@]21C (stereo not given in full),20.7 µM,20.2 µM,16.6 µM,48.2 µM,> 100 µM
COc1cc(N2CC(Cn3cc(COC(=O)[C@]4(C)CCC[C@]5(C)c6ccc(C(C)C)cc6CC[C@@H]45)nn3)OC2=O)cc(OC)c1OC (stereo not given in full),24.8 µM,32.3 µM,16.6 µM,22.7 µM,12.2 µM
CC(C)c1ccc2c(c1)CC[C@H]1[C@](C)(C(=O)OCc3cn(CC4CN(c5cccc(F)c5)C(=O)O4)nn3)CCC[C@]21C (stereo not given in full),25.8 µM,24.7 µM,32.8 µM,29.1 µM,62.1 µM
CC(C)c1ccc2c(c1)CC[C@H]1[C@](C)(C(=O)OCc3cn(CC4CN(c5cccc([N+](=O)[O-])c5)C(=O)O4)nn3)CCC[C@]21C (stereo not given in full),21.2 µM,13 µM,30.9 µM,25.9 µM,> 100 µM
CC(C)c1ccc2c(c1)CC[C@H]1[C@](C)(C(=O)O)CCC[C@]21C [DEHYDROABIETIC ACID],> 100 µM,80.4 µM,30.4 µM,> 100 µM,> 100 µM
CC(C)c1ccc2c(c1)CC[C@H]1[C@](C)(C(=O)OCc3cn(CC4CN(c5ccc(N6CCOCC6)c(F)c5)C(=O)O4)nn3)CCC[C@]21C (stereo not given in full),26.1 µM,28.7 µM,36.6 µM,> 100 µM,63.6 µM
CC(C)c1ccc2c(c1)CC[C@H]1[C@](C)(C(=O)OCc3cn(CC4CN(c5ccccc5[N+](=O)[O-])C(=O)O4)nn3)CCC[C@]21C (stereo not given in full),24.5 µM,77.1 µM,15 µM,76.4 µM,27.5 µM
CC(C)c1ccc2c(c1)CC[C@H]1[C@](C)(C(=O)OCc3cn(CC4CN(c5ccc(N6CCOCC6)cc5)C(=O)O4)nn3)CCC[C@]21C (stereo not given in full),22.4 µM,23.9 µM,21.7 µM,21.4 µM,70.9 µM
Cc1cccc(N2CC(Cn3cc(COC(=O)[C@]4(C)CCC[C@]5(C)c6ccc(C(C)C)cc6CC[C@@H]45)nn3)OC2=O)c1 (stereo not given in full),24.7 µM,23.5 µM,59.5 µM,51.5 µM,44.5 µM

# These reach a lower IC50 [1]. Values come first.
IC50 [1],IC50 [2],IC50 [3],Structure (SMILES),IC50 at 48 h [4],IC50 [5]
12.8 µM,18 µM,36.1 µM,CC(C)c1ccc2c(c1)CC[C@H]1[C@](C)(C(=O)OCc3cn(CC4CN(c5ccccc5)C(=O)O4)nn3)CCC[C@]21C (stereo not given in full),20.8 µM,> 100 µM
12.6 µM,15.6 µM,6.44 µM,Cc1ccccc1N1CC(Cn2cc(COC(=O)[C@]3(C)CCC[C@]4(C)c5ccc(C(C)C)cc5CC[C@@H]34)nn2)OC1=O (stereo not given in full),67.3 µM,17.1 µM
11.1 µM,26.8 µM,2.63 µM,Cc1ccc(N2CC(Cn3cc(COC(=O)[C@]4(C)CCC[C@]5(C)c6ccc(C(C)C)cc6CC[C@@H]45)nn3)OC2=O)cc1 (stereo not given in full),71.7 µM,> 100 µM
6.47 µM,67.8 µM,30.9 µM,CC(C)c1ccc2c(c1)CC[C@H]1[C@](C)(C(=O)OCc3cn(CC4CN(c5ccccc5Br)C(=O)O4)nn3)CCC[C@]21C (stereo not given in full),20.3 µM,9.62 µM
2.4 µM,3.43 µM,0.78 µM,COc1cccc2c1C(=O)c1c(O)c3c(c(O)c1C2=O)C[C@@](O)(C(=O)CO)C[C@@H]3O[C@H]1C[C@H](N)[C@H](O)[C@H](C)O1 [DOXORUBICIN HYDROCHLORIDE],23.5 µM,1.76 µM
